Tests used:
[1] = target: soluble human BACE1 catalytic domain (Homo sapiens (Human), UniProt P56817); experiment: BACE1 HTRF FRET Assay; format: biochemical; conditions: Ki calculated from IC50 using the Cheng-Prusoff equation; QSY7-APPswe-Eu substrate, pH 5.0; read-out: BACE-1 Ki
Description: Na^+-Acetate pH 5.0; 1% Brij-35; Glycerol; Dimethyl Sulfoxide (DMSO); Recombinant human soluble BACE1 catalytic domain (>95% pure); APP Swedish mutant peptide substrate (QSY7-APP^swe-Eu): QSY7-EISEVNLDAEFC-Europium-amide.
A homogeneous time-resolved FRET assay can be used to determine IC50 values for inhibitors of the soluble human BACE1 catalytic domain. This assay monitors the increase of 620 nm fluorescence that resulted from BACE1 cleavage of an APPswedish APP^swe mutant peptide FRET substrate (QSY7-EISEVNLDAEFC-Europium-amide). This substrate contains an N-terminal QSY7 moiety that serves as a quencher of the C-terminal Europium fluorophore (620 nm Em). In the absence of enzyme activity, 620 nm fluorescence is low in the assay and increased linearly over 3 hours in the presence of uninhibited BACE1 enzyme. Inhibition of BACE1 cleavage of the QSY7-APP^swe-Eu substrate by inhibitors is manifested as a suppression of 620 nm fluorescence.
Varying concentrations of inhibitors at 3× the final desired concentration in a volume of 10 ul are preincubated with purified human BACE1 catalytic domain (3 nM in 10 μl) for 30 minutes at 30° C. in reaction buffer containing 20 mM Na-Acetate pH 5.0, 10% glycerol, 0.1% Brij-35 and 7.5% DSMO. Reactions are initiated by addition of 10 μl of 600 nM QSY7-APP^swe-Eu substrate (200 nM final) to give a final reaction volume of 30 μl in a 384 well Nunc HTRF plate. The reactions are incubated at 30° C. for 1.5 hours. The 620 nm fluorescence is then read on a Rubystar HTRF plate reader (BMG Labtechnologies) using a 50 millisecond delay followed by a 400 millisecond acquisition time window. Inhibitor IC50 values are derived from non-linear regression analysis of concentration response curves. Ki values are then calculated from IC50 values using the Cheng-Prusoff equation using a previously determined […] of 8 μM for the QSY7-APP^swe-Eu substrate at BACE1.

[2] = target: purified human autoBACE-2 (Homo sapiens (Human), UniProt Q9Y5Z0); experiment: BACE-2 Assay (BACE-HTRF assay); format: biochemical; conditions: Ki calculated from IC50 using the Cheng-Prusoff equation; QSY7-EISEVNLDAEFC-Eu-amide substrate, pH 5.0
Description: Inhibitor IC50s at purified human autoBACE-2 are determined in a time-resolved endpoint proteolysis assay that measures hydrolysis of the QSY7-[…]-Eu-amide FRET peptide substrate (BACE-HTRF assay). […] DMSO is present at 5% final concentration in the assay. Following laser excitation of sample wells at 320 nm, the fluorescence signal at 620 nm is collected for 400 ms following a 50 μs delay on a RUBYstar HTRF plate reader (BMG Labtechnologies). Raw RFU data is normalized to maximum (1.0 nM BACE/DMSO) and minimum (no enzyme/DMSO) RFU values. […] The Ki values are calculated from the IC50 using the Cheng-Prusoff equation.

Chain of soluble human BACE1 catalytic domain (P56817 75-416): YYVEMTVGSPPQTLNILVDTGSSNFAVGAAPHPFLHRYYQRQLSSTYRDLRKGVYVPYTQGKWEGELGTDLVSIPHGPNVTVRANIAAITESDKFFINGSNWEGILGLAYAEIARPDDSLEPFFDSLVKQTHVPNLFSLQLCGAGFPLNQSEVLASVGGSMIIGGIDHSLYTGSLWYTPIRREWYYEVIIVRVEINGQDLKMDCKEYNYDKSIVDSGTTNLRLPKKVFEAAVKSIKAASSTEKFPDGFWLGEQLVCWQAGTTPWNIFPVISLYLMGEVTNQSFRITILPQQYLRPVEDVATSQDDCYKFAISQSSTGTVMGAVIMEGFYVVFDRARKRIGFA
Chain of purified human autoBACE-2 (Q9Y5Z0 63-473 limits assumed): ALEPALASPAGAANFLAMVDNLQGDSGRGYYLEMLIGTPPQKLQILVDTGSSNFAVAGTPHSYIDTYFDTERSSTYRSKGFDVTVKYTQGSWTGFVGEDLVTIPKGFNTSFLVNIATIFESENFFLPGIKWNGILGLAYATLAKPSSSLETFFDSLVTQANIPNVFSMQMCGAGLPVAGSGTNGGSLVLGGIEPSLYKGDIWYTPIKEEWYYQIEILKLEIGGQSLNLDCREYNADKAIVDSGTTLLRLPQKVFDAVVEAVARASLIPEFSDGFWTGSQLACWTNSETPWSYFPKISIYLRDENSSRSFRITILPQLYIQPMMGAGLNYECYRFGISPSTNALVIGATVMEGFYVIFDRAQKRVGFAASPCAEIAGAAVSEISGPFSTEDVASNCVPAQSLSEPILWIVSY

SMILES	Ki [1]	Ki [2]
COc1cc(Br)cnc1C(=O)Nc1ccc2c(c1)[C@@]1(C)NC(=N)N(C)S(=O)(=O)[C@H]1CCC2 [Example 27, 5-bromo-N-((4aS,11bR)-2-imino-3,11b-dimethyl-4,4-dioxido-1,2,3,4a,5,6,7,11b-octahydrobenzo[6,7]cyclohepta[1,2-e][1,2,4]thiadiazin-10-yl)-3-methoxypicolinamide]	18 nM	10 nM
CN1C(=N)N[C@]2(C)c3cc(NC(=O)c4ncc(F)cc4F)ccc3CCC[C@@H]2S1(=O)=O [Example 26, 3,5-difluoro-N-((4aS,11bR)-2-imino-3,11b-dimethyl-4,4-dioxido-1,2,3,4a,5,6,7,11b-octahydrobenzo[6,7]cyclohepta[1,2-e][1,2,4]thiadiazin-10-yl)picolinamide]	18 nM	10 nM
CN1C(=N)N[C@]2(C)c3cc(NC(=O)c4ccc(C#N)cn4)ccc3CCC[C@H]2S1(=O)=O [Example 39]	60 nM	315 nM
CN1C(=N)N[C@]2(C)c3cc(NC(=O)c4ccc(OC(F)(F)F)cn4)ccc3CCC[C@@H]2S1(=O)=O [Example 29, N-((4aS,11bR)-2-imino-3,11b-dimethyl-4,4-dioxido-1,2,3,4a,5,6,7,11b-octahydrobenzo[6,7]cyclohepta[1,2-e][1,2,4]thiadiazin-10-yl)-5-(trifluoromethoxy)picolinamide]	14 nM	144 nM
Cc1cnc(C(=O)Nc2ccc3c(c2)[C@@]2(C)NC(=N)N(C)S(=O)(=O)[C@@H]2CCC3)cn1 [Example 40, N-((4aR,11bR)-2-imino-3,11b-dimethyl-4,4-dioxido-1,2,3,4a,5,6,7,11b-octahydrobenzo[6,7]cyclohepta[1,2-e][1,2,4]thiadiazin-10-yl)-5-methylpyrazine-2-carboxamide]	1390 nM	2710 nM
CN1C(=N)N[C@]2(C)c3cc(NC(=O)c4ccc(F)cn4)ccc3OCC[C@@H]2S1(=O)=O [Example 14, 5-fluoro-N-((4aS,11bR)-2-imino-3,11b-dimethyl-4,4-dioxido-2,3,4a,5,6,11b-hexahydro-1H-benzo[2,3]oxepino[4,5-e][1,2,4]thiadiazin-10-yl)picolinamide]	10 nM	6 nM
COc1cnc2c(Nc3ccc4c(c3)[C@@]3(C)NC(=N)N(C)S(=O)(=O)[C@H]3CCC4)nccc2c1 [Example 46, (4aS,11bR)-2-imino-10-((3-methoxy-1,7-naphthyridin-8-yl)amino)-3,11b-dimethyl-1,2,3,4a,5,6,7,11b-octahydrobenzo[6,7]cyclohepta[1,2-e][1,2,4]-thiadiazine 4,4-dioxide]	108 nM	251 nM
CN1C(=N)N[C@]2(C)c3cc(NC(=O)c4ccc(Cl)cn4)ccc3CCC[C@@H]2S1(=O)=O [Example 23, 5-chloro-N-((4aS,11bR)-2-imino-3,11b-dimethyl-4,4-dioxido-1,2,3,4a,5,6,7,11b-octahydrobenzo[6,7]cyclohepta[1,2-e][1,2,4]thiadiazin-10-yl)picolinamide]	7 nM	7 nM
CN1C(=N)N[C@]2(C)c3cc(NC(=O)c4ncc(Cl)cc4F)ccc3OCC[C@@H]2S1(=O)=O [Example 13, 5-chloro-3-fluoro-N-((4aS,11bR)-2-imino-3,11b-dimethyl-4,4-dioxido-2,3,4a,5,6,11b-hexahydro-1H-benzo[2,3]oxepino[4,5-e][1,2,4]thiadiazin-10-yl)picolinamide]	4 nM	4 nM
COCC(=O)Nc1ccc2c(c1)[C@@]1(C)NC(=N)N(C)S(=O)(=O)[C@@H]1CCO2 [Example 4, N-((4aR,11bR)-2-imino-3,11b-dimethyl-4,4-dioxido-2,3,4a,5,6,11b-hexahydro-1H-benzo[2,3]oxepino[4,5-e][1,2,4]thiadiazin-10-yl)-2-methoxyacetamide]	1360 nM	890 nM
COc1cnc(C(=O)Nc2ccc3c(c2)[C@@]2(C)NC(=N)N(C)S(=O)(=O)[C@@H]2CCO3)cn1 [Example 9, N-((4aR,11bR)-2-imino-3,11b-dimethyl-4,4-dioxido-2,3,4a,5,6,11b-hexahydro-1H-benzo[2,3]oxepino[4,5-e][1,2,4]thiadiazin-10-yl)-5-methoxypyrazine-2-carboxamide]	591 nM	5610 nM
CN1C(=N)N[C@]2(C)c3cc(NCC4CC4)ccc3OCC[C@@H]2S1(=O)=O [Example 48, (4aS,11bR)-10-((cyclopropylmethyl)amino)-2-imino-3,11b-dimethyl-2,3,4a,5,6,11b-hexahydro-1H-benzo[2,3]oxepino[4,5-e][1,2,4]thiadiazine 4,4-dioxide]	880 nM	2010 nM
CCCNc1ccc2c(c1)[C@@]1(C)NC(=N)N(C)S(=O)(=O)[C@H]1CCO2 [Example 49, (4aS,11bR)-2-imino-3,11b-dimethyl-10-(propylamino)-2,3,4a,5,6,11b-hexahydro-1H-benzo[2,3]oxepino[4,5-e][1,2,4]thiadiazine 4,4-dioxide]	918 nM	1980 nM
CN1C(=N)N[C@]2(C)c3cc(NC(=O)c4ccc(C(F)(F)F)cn4)ccc3OCC[C@@H]2S1(=O)=O [Example 18, N-((4aS,11bR)-2-imino-3,11b-dimethyl-4,4-thoxido-2,3,4a,5,6,11b-hexahydro-1H-benzo[2,3]oxepino[4,5-e][1,2,4]thiadiazin-10-yl)-5-(trifluoromethyl)picolinamide]	11 nM	79 nM
CN1C(=N)N[C@]2(C)c3cc(NC(=O)c4ccc(OC(F)F)cn4)ccc3OCC[C@@H]2S1(=O)=O [Example 12, 5-(difluoromethoxy)-N-((4aS,11bR)-2-imino-3,11b-dimethyl-4,4-dioxido-2,3,4a,5,6,11b-hexahydro-1H-benzo[2,3]oxepino[4,5-e][1,2,4]thiadiazin-10-yl)picolinamide]	5 nM	58 nM
CN1C(=N)N[C@]2(C)c3cc(NC(=O)c4ccc(F)cn4)ccc3OCC[C@H]2S1(=O)=O [Example 7, 5-fluoro-N-((4aR,11bR)-2-imino-3,11b-dimethyl-4,4-dioxido-2,3,4a,5,6,11b-hexahydro-1H-benzo[2,3]oxepino[4,5-e][1,2,4]thiadiazin-10-yl)picolinamide]	108 nM	159 nM
COc1cnc(C(=O)Nc2ccc3c(c2)[C@@]2(C)NC(=N)N(C)S(=O)(=O)[C@H]2CCC3)cn1 [Example 34]	17 nM	52 nM
CN1C(=N)N[C@]2(C)c3cc(NC(=O)c4ncc(C(F)(F)F)cc4Cl)ccc3OCC[C@@H]2S1(=O)=O [Example 20, 3-chloro-N-((4aS,11bR)-2-imino-3,11b-dimethyl-4,4-dioxido-2,3,4a,5,6,11b-hexahydro-1H-benzo[2,3]oxepino[4,5-e][1,2,4]thiadiazin-10-yl)-5-(trifluoromethyl)picolinamide]	5 nM	36 nM
COc1cnc2c(Nc3ccc4c(c3)[C@@]3(C)NC(=N)N(C)S(=O)(=O)[C@H]3CCO4)ccnc2c1 [Example 42, (4aS,11bR)-2-imino-10-((7-methoxy-1,5-naphthyridin-4-yl)amino)-3,11b-dimethyl-2,3,4a,5,6,11b-hexahydro-1H-benzo[2,3]oxepino[4,5-e][1,2,4]-thiadiazine 4,4-dioxide]	412 nM	1790 nM
CN1C(=N)N[C@]2(C)c3cc(NC(=O)c4ccccn4)ccc3OCC[C@@H]2S1(=O)=O [Example 10, N-((4aS,11bR)-2-imino-3,11b-dimethyl-4,4-dioxido-2,3,4a,5,6,11b-hexahydro-1H-benzo[2,3]oxepino[4,5-e][1,2,4]thiadiazin-10-yl)picolinamide]	35 nM	15 nM
CN1C(=N)N[C@]2(C)c3cc(NC(=O)c4ncc(C(F)(F)F)cc4Cl)ccc3CCC[C@@H]2S1(=O)=O [Example 30, 3-chloro-N-((4aS,11bR)-2-imino-3,11b-dimethyl-4,4-dioxido-1,2,3,4a,5,6,7,11b-octahydrobenzo[6,7]cyclohepta[1,2-e][1,2,4]thiadiazin-10-yl)-5-(trifluoromethyl)picolinamide]	10 nM	82 nM

Reference: patent US10238743B2 (Merck Sharp & Dohme Corp., priority 2014, dated 2019)
